{"source": "ChEMBL document CHEMBL1151336", "about": "“Recent Biosynthetic Studies on Antibiotics” (J Nat Prod, 1980)", "key": {"[1]": {"tested_on": "Bacillus subtilis", "assay": "Antibacterial activity against Bacillus subtilis", "format": "functional"}, "[2]": {"tested_on": "KB", "assay": "Cytotoxicity against human KB cells", "format": "functional"}, "[3]": {"assay": "Toxicity in orally dosed mouse", "format": "organism-based", "details": "in vivo, po"}, "[4]": {"tested_on": "Rous sarcoma virus", "assay": "Antiviral activity against Rous sarcoma virus at 0.5 mg/kg", "format": "functional"}}, "data": [{"smiles": "CC(=O)c1cccc(N[C@H]2[C@H](N)[C@@](NC(=O)N(C)C)([C@H](C)O)[C@@](C)(O)[C@@]2(O)COC(=O)c2c(C)cccc2O)c1", "note": "[PACTAMYCIN]", "values": [{"measurement": "MIC", "setting": "[1]", "result": 0.8, "unit": "µg/mL"}, {"measurement": "MIC", "setting": "[2]", "result": 0.003, "unit": "µg/mL"}, {"measurement": "LD50", "setting": "[3]", "result": 10.7, "unit": "mg/kg"}, {"measurement": "inhibition in vivo at 0.5 mg/kg", "setting": "[4]", "result": 30, "unit": "%"}]}]}
